Consider two molecules from US10512670B2, “Pharmaceutical composition for preventing or treating hair loss comprising chemokine (C-X-C motif) ligand 1 (CXCL1) protein or CXCL1 protein and minoxidil as active ingredient” (SCM LIFESCIENCE CO., LTD., priority 2016, dated 2019).

The subject of test [1] is C3H/HeN mouse. The test can be described thus: hair generation test in hair-removed mouse, subcutaneous injection of CXCL1 protein. It counts as in vivo. Here is the method:
For a test for verifying a hair generation effect, the back of a 7-week-old C3H/HeN mouse was stabilized by removing hair by using a hair removal agent. After one day, 100 ng/ml of a human chemokine (C-X-C motif) ligand 1 (CXCL1) (SEQ ID NO:1) protein was subcutaneously injected to the back once. As a control, phosphate buffered saline (PBS) including 0.1% BSA at the same volume lysed with the CXCL1 protein was subcutaneously injected. Thereafter, the hair generation of the back of the hair-removed mouse was traced and observed for 15 days. A photograph of tracing and observing the back of the mouse with hair generation was illustrated in FIG. 2.
Further, after 15 days, the hair of the back of the mouse with newly hair generation was removed by using a knife and then the result of measuring the weight of the obtained hair was illustrated in FIG. 3.

Test [2] deals with human dermal papilla cell (DPC). The test can be described thus: human dermal papilla cell (DPC) proliferation test. It counts as cell-based. Particulars: 1 ng/ml or 5 ng/ml treated to DPC, 40 hrs, compared to cells without CXCL1 protein (FIG. 1). As to the method: A human dermal papilla cell (DPC) proliferation test which is a representative in vitro cell test system for measuring hair proliferation was performed. 1 ng/ml or 5 ng/ml of the CXCL1 protein in Example 1 was treated to DPC, proliferation for 40 hrs was measured, and the result was illustrated in FIG. 1.

Test [3] has as its system C3H/HeN mouse. Nature of the test: hair generation test in hair-removed mouse, application of minoxidil and CXCL1 protein to back skin. It is filed as in vivo. As to conditions: applied to back skin for 14 days (FIG. 5); PBS-alone 20 mg. Here is the method:
In addition, in the case of combining and using the minoxidil and the CXCL1 protein which were commercialized as a hair generation agent, an experiment for verifying whether the hair generation effect may be better was performed. First, for an experiment for hair regeneration, long hair of a 7-week-old C3H/HeN mouse and the like was shortly cut by using a hair cutting machine and thereafter, the hair was completely removed by using a hair removal agent. After the hair-removed mouse was stabilized for one day, a recombinant protein CXCL1 was mixed with 2% minoxidil (Women's Rogaine, Johnson & Johnson Healthcare Products, USA) to be 1 μg/ml and 10 μg/ml, respectively. The mixture of the minoxidil and the CXCL1 protein was applied to the back skin of the hair-removed mouse for 14 days by […] per day. As a control, a PBS-alone applied group and a 2% minoxidil-alone treated group were set. The hair generation in the back of the mouse was tracked and observed for 14 days and newly generated hair was obtained again and the weight was measured, and the result was illustrated in FIGS. 4 and 5.

Turning to “chemokine (C-X-C motif) ligand 1 (CXCL1) [CXCL1 protein]”, in the test on C3H/HeN mouse [1] (100 ng/ml subcutaneously injected once, newly generated hair after 15 days (FIG. 3), control 40 mg), the hair weight turned out to be 80 mg. Besides, the “hair generation of the back (photograph)” value with C3H/HeN mouse [1] (100 ng/ml subcutaneously injected to the back once, observed for 15 days, compared with control (FIG. 2)) is given as “hair generation was more excellent”. Moreover, the “new hair relative to PBS-administered group” value in the test with C3H/HeN mouse [1] (CXCL1 protein-alone administration) is listed as “about two times greater”. Moreover, the cell proliferation result in test [2] was “cell proliferation was increased”.
`Nc1cc(N2CCCCC2)nc(N)[n+]1[O-]` [minoxidil]: the “amount of newly generated hair” value in the test with C3H/HeN mouse [3] was “about 30 mg”.
